Results: PubChem BioAssay (NCI)
Where “and” joins values, the source holds several entries; their conditions need not be identical. Equal entries are not always repeated.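 Cultured in 96-well plates, cells were exposed to test compound for 48 hours across five concentrations. TGI is the concentration that stops growth completely.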

Assays:
Experiment in all cases: DTP human tumour cell line panel, 48 h
[1] = test system: HT29 colon
[2] = test system: COLO 205 colon
[3] = test system: PC-3 prostate
[4] = test system: RXF 393 renal
[5] = test system: SW-620 colon
[6] = test system: SN12C renal
[7] = test system: BT-549 breast
[8] = test system: ACHN renal
[9] = test system: MDA-MB-435
[10] = test system: LOX IMVI melanoma

Compound	TGI [1] [µM]	TGI [2] [µM]	TGI [3] [µM]	TGI [4] [µM]	TGI [5] [µM]	TGI [6] [µM]	TGI [7] [µM]	TGI [8]	TGI [9] [µM]	TGI [10] [µM]
Cc1c(C(=O)N2CCN(c3ccc([N+](=O)[O-])cc3)CC2)[n+](=O)c2cc(Cl)c(Cl)cc2n1[O-]	90.5	> 100	45	27.5	> 100	38.2	33	26.3 µM	> 100	> 100
CNc1ccc(-c2nc3cc(C)ccc3o2)cc1	> 100	> 100	> 100	79.8	> 100	> 100	> 100	> 100 µM	> 100	> 100
COc1cccc(-c2ccc3c4c2O[C@H]2c5[nH]c6ccccc6c5C[C@@]5(O)[C@@H](C3)N(CC3CC3)CC[C@]425)c1	3.19	4.15	2.48	3.03	4.77	3.13	15.9	2.98 µM	3.18	3.09
NC(=Nc1ccc(O)cc1)S(=O)(=O)O	> 100	> 100	> 100	> 100	> 100	> 100	> 100	> 100 µM	> 100	> 100
COc1ccc(O[C@H](COCc2ccccc2)C[C@@H]2COC(C)(C)O2)cc1	> 100	> 100	> 100	> 100	> 100	> 100	> 100	> 100 µM	> 100	> 100
COc1ccc2cc1Oc1ccc(cc1)C(Sc1ccccc1)CCOC(=O)CC2 (stereo not given)	> 100	> 100	> 100	> 100	> 100	> 100	> 100	> 100 µM	> 100	> 100
COC1=C(N=[N+]=[N-])C(=O)c2ncccc2C1=O	33	6.35	29	11.9	4.24	29.1	23	15 µM	4.41	7.78
COc1cc(OC)c2c(O)c3c(cc2c1)CC(C)(C)CC3=O	> 100	> 100	> 100	> 100	> 100	> 100	> 100	> 100 µM	> 100	> 100
Cn1c(=O)c2c(nc3n(Cc4ccccc4)c(=O)c(NCCBr)cn23)n(C)c1=O	> 100	> 100	> 100	35	> 100	> 100	> 100	32.3 µM	> 100	> 100
O=C1NC(N/N=C\C(O)C(O)C(O)CO)=N/C1=C/c1ccc(Cl)cc1 (stereo not given)	> 100	> 100	> 100	> 100	> 100	> 100	> 100	52.7 µM and 48.1 µM	> 100	> 100
CN(C)c1ccc(/C=C2\N=C(NN)NC2=O)cc1	98.9	> 100	> 100	> 100	> 100	> 100	> 100	> 100 µM	> 100	> 100
O=C(Nc1nc2c(=O)[nH]cnc2s1)c1ccccc1	> 100	> 100	> 100	> 100	> 100	> 100	> 100	> 100 µM	> 100	> 100
CC(C)CCC[C@@H](C)[C@H]1CCC2C3CC=C4C[C@@H](Oc5c6ccccc6nc6ccccc56)CCC4C3CCC21 (stereo not given in full)	> 50	> 50	> 50	> 50	> 50	> 50	> 50	> 50 µM	> 50	> 50
O=c1c(SSc2coc3cc(F)ccc3c2=O)coc2cc(F)ccc12	32.3	43.2	21.5	> 100	43	36.6	> 100	26.1 µM	36.3	8.21
Clc1cc2c(c(CSC3=NCN(CC4CC4)CN3)c1)OCOC2	63.1	28.4	65.8	36.9	65.1	> 100	51.5	45.6 µM	74.3	> 100
O=C1/C(=C\c2cccc(Oc3ccccc3)c2)S(=O)(=O)C(c2ccccc2)N1c1ccccc1Cl (stereo not given)	70.3	33.5	> 100	> 100	> 100	72	> 100	> 100 µM	87	> 100
C=CCOc1ccccc1N=N/C(C#N)=N\Nc1ccccc1OCC=C	> 100	> 100	> 100	> 100	> 100	> 100	> 100	> 100 µM	> 100	> 100
